Assay [1] concerns Pseudomonas aeruginosa. Kind of assay: Antibacterial activity against Pseudomonas aeruginosa ATCC 27853 after 24 hrs by Broth micro dilution method. The assay is classed as functional. The settings on record: ATCC 27853, 24 h.
Assay [2] deals with Staphylococcus aureus. Put plainly: Antibacterial activity against Staphylococcus aureus ATCC 6738 after 24 hrs by Broth micro dilution method. The assay is classed as functional. The settings on record: ATCC 6738, 24 h.
For assay [3], the system named is Pseudomonas aeruginosa. Kind of assay: Antibacterial activity against Pseudomonas aeruginosa ATCC 27853 assessed as growth inhibition at 10 ug/ml after 24 hrs by Broth micro dilution method relative to control. The settings on record: ATCC 27853, 24 h, read-out: GI. The assay is classed as functional.
In assay [4] the test system is Staphylococcus aureus. Put plainly: Antibacterial activity against Staphylococcus aureus ATCC 6738 assessed as growth inhibition at 10 ug/ml after 24 hrs by Broth micro dilution method relative to control. The settings on record: ATCC 6738, 24 h, read-out: GI. The assay is classed as functional.
The subject of assay [5] is Staphylococcus aureus. Kind of assay: increase in biofilm formation of Staphylococcus aureus ATCC 6738 at 10 ug/ml relative to control. The assay is classed as functional, organism-based.

Molecules are shown by their SMILES. Converted amounts (≈) assume the structure as drawn. The source made the active and inactive calls. The calls are words filed in the database; no cut-off is given here. Some results are limits rather than exact numbers.

A word on the MBC: it is the lowest tested concentration that kills the bacteria rather than only halting them. A higher MBC goes with weaker bactericidal potency. A word on the MIC: it is the least concentration at which growth counts as inhibited.

Turning to `CCCCCC(=O)c1c(O)c(CC2=C(O)C(C)(C/C=C(\C)CCC=C(C)C)C(O)=C(C(C)=O)C2=O)c(O)c2c1OC(C)(C)C=C2` (stereo not given) [YUNGENSIN B], the MBC in the assay on Pseudomonas aeruginosa [1] was determined as 50 µg/mL (≈ 80.5 µM); against Staphylococcus aureus [2] it was 100 µg/mL (≈ 161 µM). In addition, the MIC against Pseudomonas aeruginosa [1] and with Staphylococcus aureus [2] was 10 µg/mL (≈ 16.1 µM) in each case. For the same compound, the inhibition of growth at 10 µg/mL in the assay on Pseudomonas aeruginosa [3] and in the assay with Staphylococcus aureus [4] was 99% each time. Besides, the outcome with Staphylococcus aureus [5] was inactive.
For `CCCC(=O)c1c(O)c2c(c(CC3=C(O)C(C)(C/C=C(\C)CCC=C(C)C)C(O)=C(C(C)=O)C3=O)c1O)OC(C)(C)C=C2` (stereo not given) [YUNGENSIN F], the minimal bactericidal concentration (MBC) stood at 50 µg/mL (≈ 84.4 µM) against Pseudomonas aeruginosa [1] and 100 µg/mL (≈ 169 µM) in the assay on Staphylococcus aureus [2]. The MIC in the assay with Pseudomonas aeruginosa [1] and against Staphylococcus aureus [2] was 50 µg/mL (≈ 84.4 µM) in each case. The inhibition of growth at 10 µg/mL in the assay on Pseudomonas aeruginosa [3] came out at 86%; with Staphylococcus aureus [4] it was 93%. The outcome with Staphylococcus aureus [5] was inactive.
As for `CCCC(=O)c1c(O)c(CC2=C(O)C(C)(C/C=C(\C)CCC=C(C)C)C(O)=C(C(C)=O)C2=O)c(O)c2c1OC(C)(C)C=C2` (stereo not given) [YUNGENSIN A], the MBC against Pseudomonas aeruginosa [1] and against Staphylococcus aureus [2] was 50 µg/mL (≈ 84.4 µM) each time. For the same compound, the MIC with Pseudomonas aeruginosa [1] and with Staphylococcus aureus [2] was 10 µg/mL (≈ 16.9 µM) each time. The inhibition of growth at 10 µg/mL with Pseudomonas aeruginosa [3] and in the assay with Staphylococcus aureus [4] was 99% each time. The outcome with Staphylococcus aureus [5] was inactive.
With `CCCC(=O)c1c(O)c(CC2=C(O)C(C)(C/C=C(\C)CCC=C(C)C)C(O)=C(C(C)=O)C2=O)c(O)c2c1OC(C)(CCC=C(C)C)C=C2` (stereo not given) [YUNGENSIN C], the MBC is 50 µg/mL (≈ 75.7 µM) against Pseudomonas aeruginosa [1] and 100 µg/mL (≈ 151 µM) with Staphylococcus aureus [2]. Further, the MIC against Pseudomonas aeruginosa [1] and with Staphylococcus aureus [2] was 50 µg/mL (≈ 75.7 µM) in each case. Further, the inhibition of growth at 10 µg/mL was determined as 87% in the assay with Pseudomonas aeruginosa [3] and 92% with Staphylococcus aureus [4].
`CCCC(=O)c1c(O)c(C/C=C(\C)CCC=C(C)C)c(O)c(CC2=C(O)C(C)(C/C=C(\C)CCC=C(C)C)C(O)=C(C(C)=O)C2=O)c1O` (stereo not given) [YUNGENSIN E]: the MBC in the assay with Pseudomonas aeruginosa [1] and against Staphylococcus aureus [2] was 200 µg/mL (≈ 302 µM) each time. Further, the MIC in the assay with Pseudomonas aeruginosa [1] and against Staphylococcus aureus [2] was 100 µg/mL (≈ 151 µM) each time. The inhibition of growth at 10 µg/mL in the assay on Pseudomonas aeruginosa [3] and in the assay on Staphylococcus aureus [4] was 87% each time. Moreover, in the assay on Staphylococcus aureus [5], the result was inactive.
With `CCCC(=O)c1c(O)c(CC=C(C)C)c(O)c(CC2=C(O)C(C)(C/C=C(\C)CCC=C(C)C)C(O)=C(C(C)=O)C2=O)c1O` (stereo not given) [YUNGENSIN D], the MBC is 100 µg/mL (≈ 168 µM) in the assay on Pseudomonas aeruginosa [1] and over 200 µg/mL in the assay with Staphylococcus aureus [2]. Also, the values for the minimal inhibitory concentration (MIC) against Pseudomonas aeruginosa [1] and in the assay on Staphylococcus aureus [2] were 50 µg/mL (≈ 84.1 µM) and 100 µg/mL (≈ 168 µM), respectively. In addition, the inhibition of growth at 10 µg/mL in the assay with Pseudomonas aeruginosa [3] is 86%; in the assay with Staphylococcus aureus [4], 83%.

Source of the values: ChEMBL document CHEMBL1629425, “Antibacterial prenylated acylphloroglucinols from the fern Elaphoglossum yungense” (2010).
